In US7160894B2, “Tricyclic compound” (Asahi Kasei Pharma Corporation, priority 2003, dated 2007):

Experiments:
intraocular pressure = assay: Intraocular pressure reducing action (Test Example 4); assay type: in vivo, Japanese white rabbit; settings: rabbit, 50 μl of aqueous solution dropped to the left eye
Experimental: A Japanese white rabbit having a body weight of about 2 kg was placed in a positioner and naturalized for one week before the experiment. An ophthalmologic local anesthesant (Benoxil) was administered to the left eye, and then intraocular pressure was measured by using a tonometer (Classic 30, Solan). The initial value of the intraocular pressure was measured, then 50 μl of an aqueous solution of a test compound was dropped to the left eye at various concentrations, and the intraocular pressure was measured with passage of time.

[1] = test system: lipopolysaccharide-induced pulmonary inflammation; assay: Pulmonary inflammation suppressing action, LPS-induced (Test Example 8); assay type: in vivo, BALB/c female mice; settings: mice, LPS inhalation, test compound by inhalation over 10 minutes, 3 hours after administration
Excerpt: According to Gonzales de Moraes, V L., et al., Br. J. Pharmacol., 123, pp. 631–6, 1998, suppressing action on pulmonary inflammation was studied. BALB/c female mice (7-week old) were used for the test, as the compound administration group and positive control group, each consisting of 7 mice, as well as the negative control group consisting of 5 mice. For induction of inflammation, a 0.03% physiological saline solution of a lipopolysaccharide (LPS, a mixture derived from Escherichia coli O55 and B5 strains, Sigma) was used. A test compound was dissolved in physiological saline to prepare solutions of various concentrations. The test animals were first inhaled with the aforementioned lipopolysaccharide solution for 10 minutes by using a pressurization type nebulizer (PARI-IS2) to induce inflammation. Then, 1 minute after the completion of the inhalation of the lipopolysaccharide solution, the animals were administered with a solution of test compound at various concentrations over 10 minutes by inhalation using the aforementioned nebulizer. The mice of the positive control group were administered with the same volume of physiological saline instead of the test compound solution over 10 minutes by inhalation. Three hours after the administration of the test compound, pulmonary cavities of the test animals were washed with physiological saline, and the total infiltrated leucocyte (WBC) number was counted.

[2] = test system: cerebral hippocampal neurons; assay: Neurite outgrowth action (Test Example 5); assay type: cell-based, Sprague-Dawley rats; settings: rat hippocampal neurons, 24 hours after addition
Experimental: From 18 day-old Sprague-Dawley rats, cerebral hippocampal neurons were prepared according to the method of Neuman et al. (Neuman, H. R. et al., J. Neurosci., 22, pp. 854–862, 2002). The prepared neurons were cultured for 24 hours according to the method of Tanaka et al. (Tanaka, H. et al., J. Cell Biol., 158 (2), pp. 321–329, 2002), then the medium was exchanged with fresh medium, and test medicaments of various concentrations or equivalent amounts of vehicle were added. Twenty-four hours after the addition of the medicaments, neurite length of each neuron was measured for the medicament-added group and the no-addition group, and compared. The neurite length was evaluated according to the method of Neuman et al. (Neuman, H. R. et al., J. Neurosci., 22, pp. 854–862, 2002).

[3] = test system: thoracic aorta constricted with phenylephrine; assay: Vasoconstriction inhibitory action (Test Example 2); parameters: species or system Rats (Wistar); settings: test compound 1 μM; rat thoracic aorta constricted with phenylephrine 1 μM
Excerpt: Rats (Wistar, 11-week old) were bleeded to death and laparotomized to take out the thoracic aorta. That aorta was cut into a ring of a length of about 3 mm in a conventional manner (Asano, T., et al., J. Pharmacol. Exp. Ther., 241, pp. 1033–1040 (1987)) and hung in 10-ml organ bath filled with Krebs-Hensright nutrient solution bubbled with a mixed gas of 95% O2 and 5% CO2. One end of the blood vessel was connected to an isometric transducer (FD Pickup TB-912T, Nihon Kohden) and applied with 2.5 g of resting tension, and constriction and relaxation reactions of the aorta were recorded.
The aorta was constricted with phenylephrine (1 μM, Sigma) and then added with a test compound (1 μM), and the vasoconstriction inhibitory action thereof was observed. The vasoconstriction inhibitory actions of the test compounds were calculated as relaxation ratios, which were based on the vasoconstriction with phenylephrine observed immediately before the addition of the test compounds taken as 100%.

neutrophils = assay: Neutrophil migration inhibitory action, Boyden Chamber, FMLP (Test Example 6); assay type: cell-based; settings: 0.5 h, human neutrophils, FMLP 1 μM, 37° C., 30 minutes, read-out: concentration at which the migration of neutrophils is inhibited (IC50)
Experimental: Neutrophils were isolated from 50 to 100 ml of peripheral blood collected from healthy human donors by the method described in Test Example 1 to obtain a cell suspension (8×10^6/ml). Subsequently, solutions of a test compound at various concentrations were introduced into wells of a 96-well plate in a volume of 125 μl per well, the cell suspension of an equivalent volume was added to it and the plate was preincubated at room temperature for 5 minutes. During the preincubation, FMLP (1 μM, Sigma) solution was added to the lower chamber to set Boyden Chamber, the preincubated cell suspension was added to the upper chamber in a volume of 200 μl per well, and the cells were allowed to migrate at 37° C. under 5% carbon dioxide for 30 minutes. The filter after the migration was collected, and the non-migrated cells adhered to the surface that faced the upper chamber were carefully wiped off. Then, the migrated cells on the back surface were stained with DifQuick dye solution (International Reagents), washed with water and dried, and then absorbance was measured at 595 nm. The inhibition ratio against migration (%) of a test compound was calculated by using the following equation: Migration inhibition ratio (%)=(1−Absorbance of the group with addition of test compound/Absorbance of the group without addition of test compound)×100
Further, the migration inhibitory ratio was calculated with changing the test compound concentration, and a compound concentration providing an inhibition ratio of 50% was obtained as IC50. The compounds of the present invention obtained in Examples 1, 11, 12, 13, 14, 15, 16, 18, 19, 20, 21, 22, 24, 31, 41, 42, 47, 52, 53, 54, 55, 56, 57, 58, 59, 60, 62, 63, 64, 65, 66, 67, 68, 72, 73, 74, 75, 76, 77, 78, 79, 80, 81, 82, 83, 84, 87, 88, 89, 90, and 91 inhibited the migration of neutrophils at a concentration of 40 μM or less, and further, the compounds of Examples 1, 11, 12, 13, 14, 15, 19, 21, 22, 24, 31, and 41 inhibited the migration of neutrophils at a concentration of 10 μM or less. Further, trans-benzyl-[4-(2,3-dihydro-1,5-diazaphenalen-1-yl)cyclohexyl]amine inhibited the migration of neutrophils at a concentration of 40 μM or less.

[4] = test system: phosphorylated myosin regulatory light chain in neutrophils; assay: Action on amount of phosphorylated myosin regulatory light chain in the cells (Test Example 1); assay type: cell-based; settings: Neutrophil, 5 min; human neutrophils, reaction at 25° C. for 5 minutes; read-out: concentration at which the phosphorylation of myosin regulatory light chain is inhibited (IC50)
Experimental: A volume of 50 to 100 ml of peripheral blood collected from healthy volunteers was centrifuged by using Mono-Poly separator solution (Dainippon Pharmaceutical) to prepare a neutrophil containing fraction. The neutrophils were washed with PBS(−) and resuspended in Hanks' Balanced Salt Solution (HBSS+, Gibco) to prepare a cell suspension (8×10^6/ml). The cell suspension was diluted to 5×10^6/ml, introduced into Eppendorf tubes in a volume of 0.4 ml each, then 0.1 ml each of solutions of a test compound at various concentrations were added to the suspension and allowed to react at 25° C. for 5 minutes. After the reaction, 0.1 ml of trichloroacetic acid solution was added to each reaction, the reaction mixture was gently shaken and centrifuged at 12,000 rpm (4° C., 5 minutes), and the supernatant was removed. Subsequently, 3 μl of 1 M Tris solution was added to the residue, the mixture was further mixed with 50 μl of extraction buffer (8 M urea, 0.02% 2-mercaptoethanol, 0.002% bromophenol blue) and left stand at room temperature for 1 hour. Then, the reaction mixture was loaded on a spin column (0.45 μm, Millipore) to remove the insoluble solids and a sample buffer for SDS polyacrylamide gel electrophoresis (25 mM, Tris-HCl pH 6.8, 2.5% 2-mercaptoethanol, 2% sodium dodecylsulfate, 5% sucrose, 0.002% bromophenol blue as final concentrations) was added, and 10 μl of each sample was subjected to electrophoresis.
The gel after the electrophoresis was blotted on a nitrocellulose membrane (BioRad), blocked with 5% skim milk, and reacted successively with antibodies pLC1 (Sakurada K. et al, Am. J. Physiol., 274, C1563–C1572 (1998)), which specifically recognize the phosphorylated myosin regulatory light chain, and donkey anti-mouse IgG (Chemicon) conjugated with horseradish peroxidase. The band of the phosphorylated myosin regulatory light chain was detected on a film by using ECL Plus Kit (Amersham Pharmacia Biotech). This band was subjected to quantification using a densitometer. By using this value, the inhibitory ratio (%) for phosphorylation of the myosin regulatory light chain was calculated by using the following equation. Phosphorylation inhibition ratio (%)=1−(Band intensity of phosphorylated myosin regulatory light chain with addition of the test compound/Band intensity of phosphorylated myosin regulatory light chain without addition of the test compound)×100
Further, the phosphorylation inhibition ratio was calculated with changing the concentrations of the test compound, and a compound concentration providing an inhibition ratio of 50% was obtained as IC50.

Structure (SMILES)	intraocular pressure reducing action (intraocular pressure)	pulmonary inflammation, total infiltrated leucocyte (WBC) number [1]	neurite outgrowth (neurite length) [2]	vasoconstriction inhibitory action (relaxation ratio) [3]	IC50 (neutrophils) [µM]	IC50 [4] [µM]
COCCN1CCC(N2CCc3cncc4cccc2c34)CC1.Cl [Example 19]	significant intraocular pressure reducing action	significantly improved the pathological condition	significant neurite outgrowth axis extension	significant vasoconstriction inhibitory action		
CN[C@H]1CC[C@H](N2CCc3cncc4cccc2c34)CC1.Cl [Example 41]	significant intraocular pressure reducing action	significantly improved the pathological condition	significant neurite outgrowth axis extension	significant vasoconstriction inhibitory action		
FC1CNCCC1N1CCc2cncc3cccc1c23 (centres unmarked) [Example 54, 1-(3-fluoropiperidin-4-yl)-2,3-dihydro-1H-1,5-diazaphenalene]	significant intraocular pressure reducing action				≤ 40	≤ 40
CC(=O)N(C)CCN1CCC(N2CCc3cncc4cccc2c34)CC1 [Example 59, N-{2-[4-(2,3-dihydro-1,5-diazaphenalen-1-yl)piperidin-1-yl]ethyl}-N-methylacetamide]	significant intraocular pressure reducing action				≤ 40	≤ 40
O=C1CCN1CCN1CCC(N2CCc3cncc4cccc2c34)CC1 [Example 60, 1-{2-[4-(2,3-dihydro-1,5-diazaphenalen-1-yl)piperidin-1-yl]ethyl}azetidin-2-one]	significant intraocular pressure reducing action				≤ 40	≤ 40
